Results as given in PMC5791972 (PLoS ONE, 2018).
“Also recorded” adds a separate entry of the source. Read-outs that look alike come from different tables or passages of the source.

Experiments:
CD-1 mice = experiment: Forced swim test
C57BL/6 (CSD) mice = experiment: Chronic social defeat and fear learning and memory; format: in vivo, mouse; settings: 1 mg/kg oral
[1] = target: carbonic anhydrase II (h) (Homo sapiens, UniProt P00918); experiment: biochemical; settings: 1.0E-06 M
5-HT6 (h) = 5-HT6 (h) (Homo sapiens, UniProt P50406); experiment: biochemical
Chain of 5-HT6 (h) (P50406 whole entry): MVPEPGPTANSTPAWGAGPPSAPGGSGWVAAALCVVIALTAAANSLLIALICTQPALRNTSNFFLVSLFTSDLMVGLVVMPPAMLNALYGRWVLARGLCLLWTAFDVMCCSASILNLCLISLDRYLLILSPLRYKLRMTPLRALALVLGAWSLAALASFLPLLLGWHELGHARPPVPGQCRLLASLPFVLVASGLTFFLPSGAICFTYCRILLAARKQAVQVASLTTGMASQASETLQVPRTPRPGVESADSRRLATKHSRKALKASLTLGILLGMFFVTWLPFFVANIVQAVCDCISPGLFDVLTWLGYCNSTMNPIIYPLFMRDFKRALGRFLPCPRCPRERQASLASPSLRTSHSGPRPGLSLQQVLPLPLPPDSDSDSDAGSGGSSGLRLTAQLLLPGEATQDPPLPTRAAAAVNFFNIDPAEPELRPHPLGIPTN

[2] = target: glycine (strychnine-insensitive) (Rattus norvegicus, UniProt P35439); format: binding
hTRPC4 = target: T1, hTRPC4 (Homo sapiens, UniProt Q9UBN4); experiment: Whole-cell manual patch clamp; format: cell-based; settings: 10 µM carbachol /M1R
T1 construct: The cDNAs for various full-length ion channels were subcloned into pcDNA5/TO; expressed in transfected cells; M1R co-expressed in the calcium assay, M2R in patch clamp
T1 sequence (Q9UBN4 1-893 isoform Q9UBN4-2): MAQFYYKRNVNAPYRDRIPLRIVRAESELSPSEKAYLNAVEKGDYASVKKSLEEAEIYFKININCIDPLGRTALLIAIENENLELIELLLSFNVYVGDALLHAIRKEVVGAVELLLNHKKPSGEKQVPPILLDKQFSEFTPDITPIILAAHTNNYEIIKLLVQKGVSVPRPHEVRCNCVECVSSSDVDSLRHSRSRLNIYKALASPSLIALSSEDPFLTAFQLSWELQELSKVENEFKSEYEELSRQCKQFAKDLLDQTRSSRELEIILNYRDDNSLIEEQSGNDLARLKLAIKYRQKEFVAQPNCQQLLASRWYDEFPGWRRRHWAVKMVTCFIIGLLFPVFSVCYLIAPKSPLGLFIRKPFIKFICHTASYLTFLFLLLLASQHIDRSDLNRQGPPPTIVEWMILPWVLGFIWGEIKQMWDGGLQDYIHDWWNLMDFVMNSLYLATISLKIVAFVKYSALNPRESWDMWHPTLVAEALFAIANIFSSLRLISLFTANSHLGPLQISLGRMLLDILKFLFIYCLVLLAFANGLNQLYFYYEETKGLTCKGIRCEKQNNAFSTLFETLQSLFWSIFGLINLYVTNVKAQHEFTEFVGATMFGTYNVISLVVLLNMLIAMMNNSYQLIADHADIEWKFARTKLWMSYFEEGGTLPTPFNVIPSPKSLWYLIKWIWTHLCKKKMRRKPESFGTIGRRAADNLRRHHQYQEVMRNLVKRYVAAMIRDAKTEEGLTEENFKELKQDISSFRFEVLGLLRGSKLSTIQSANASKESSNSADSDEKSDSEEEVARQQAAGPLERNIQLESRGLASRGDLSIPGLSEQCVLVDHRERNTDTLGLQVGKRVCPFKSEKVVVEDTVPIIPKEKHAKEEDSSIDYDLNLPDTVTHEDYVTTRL

sst4 (h) = sst4 (h) (Homo sapiens, UniProt P31391); format: binding; settings: 1.0E-06 M
Chain of sst4 (h) (P31391 whole entry): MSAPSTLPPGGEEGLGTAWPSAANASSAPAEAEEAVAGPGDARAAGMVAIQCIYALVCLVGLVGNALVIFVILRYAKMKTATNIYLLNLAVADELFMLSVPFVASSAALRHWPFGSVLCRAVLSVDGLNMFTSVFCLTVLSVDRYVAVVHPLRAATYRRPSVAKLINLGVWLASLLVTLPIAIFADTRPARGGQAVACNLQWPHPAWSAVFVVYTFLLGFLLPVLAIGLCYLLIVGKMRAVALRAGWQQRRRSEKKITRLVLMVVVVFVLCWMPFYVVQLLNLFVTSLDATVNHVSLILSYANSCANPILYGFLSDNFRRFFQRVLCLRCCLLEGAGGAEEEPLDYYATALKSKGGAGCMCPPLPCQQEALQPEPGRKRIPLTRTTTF

D2S (h) = D2S (h) (Homo sapiens, UniProt P14416); experiment: biochemical
Chain of D2S (h) (P14416 1-414 isoform P14416-2): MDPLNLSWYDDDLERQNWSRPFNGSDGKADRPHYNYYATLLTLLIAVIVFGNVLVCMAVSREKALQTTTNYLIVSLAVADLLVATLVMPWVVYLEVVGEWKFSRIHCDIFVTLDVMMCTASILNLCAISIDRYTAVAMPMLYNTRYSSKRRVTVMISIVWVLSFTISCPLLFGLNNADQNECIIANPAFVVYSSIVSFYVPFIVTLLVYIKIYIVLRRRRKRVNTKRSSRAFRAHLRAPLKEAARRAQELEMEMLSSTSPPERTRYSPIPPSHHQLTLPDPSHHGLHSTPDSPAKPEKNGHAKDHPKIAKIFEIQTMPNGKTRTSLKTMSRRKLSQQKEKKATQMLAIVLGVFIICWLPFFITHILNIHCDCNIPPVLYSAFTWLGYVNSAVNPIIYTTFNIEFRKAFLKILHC

NMDA = format: binding, rat; settings: 1.0E-06 M
5-HT2C (h) = target: T2, 5-HT2C (h) (Homo sapiens, UniProt P28335); format: binding; settings: 1.0E-06 M
T2 construct: host or cells: HEK-293 cells
T2 sequence (P28335 33-458): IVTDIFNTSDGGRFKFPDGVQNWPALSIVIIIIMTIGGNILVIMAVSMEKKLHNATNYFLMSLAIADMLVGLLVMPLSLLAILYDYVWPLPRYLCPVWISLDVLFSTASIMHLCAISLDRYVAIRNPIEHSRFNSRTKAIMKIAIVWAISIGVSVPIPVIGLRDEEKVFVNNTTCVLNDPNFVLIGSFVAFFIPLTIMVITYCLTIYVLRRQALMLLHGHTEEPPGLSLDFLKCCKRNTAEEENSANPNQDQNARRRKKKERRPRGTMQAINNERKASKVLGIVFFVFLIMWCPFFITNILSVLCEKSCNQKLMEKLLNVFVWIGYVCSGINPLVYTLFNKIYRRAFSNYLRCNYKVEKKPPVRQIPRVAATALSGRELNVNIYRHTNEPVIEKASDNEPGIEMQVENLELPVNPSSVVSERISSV

M1 (h) = target: T3, M1 (h) (Homo sapiens, UniProt P11229); experiment: biochemical; format: binding; settings: 1.0E-06 M
T3 construct: host or cells: CHO cells
T3 sequence (P11229 1-460): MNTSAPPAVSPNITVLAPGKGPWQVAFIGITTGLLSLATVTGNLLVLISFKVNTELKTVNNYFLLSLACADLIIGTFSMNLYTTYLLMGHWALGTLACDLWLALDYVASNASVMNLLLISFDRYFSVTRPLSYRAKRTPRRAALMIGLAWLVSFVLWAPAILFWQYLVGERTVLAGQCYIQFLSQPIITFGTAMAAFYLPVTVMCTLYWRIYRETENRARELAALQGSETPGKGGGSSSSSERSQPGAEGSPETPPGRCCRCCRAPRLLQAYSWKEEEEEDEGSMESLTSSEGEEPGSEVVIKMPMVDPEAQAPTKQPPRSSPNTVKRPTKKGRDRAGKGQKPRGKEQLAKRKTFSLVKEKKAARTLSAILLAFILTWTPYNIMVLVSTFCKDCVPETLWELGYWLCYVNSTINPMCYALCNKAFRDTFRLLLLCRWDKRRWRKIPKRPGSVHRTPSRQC

α2A (h) = target: T4, α2A (h) (Homo sapiens, UniProt P08913); format: binding; settings: 1.0E-06 M
T4 construct: host or cells: CHO cells
T4 sequence (P08913 1-465): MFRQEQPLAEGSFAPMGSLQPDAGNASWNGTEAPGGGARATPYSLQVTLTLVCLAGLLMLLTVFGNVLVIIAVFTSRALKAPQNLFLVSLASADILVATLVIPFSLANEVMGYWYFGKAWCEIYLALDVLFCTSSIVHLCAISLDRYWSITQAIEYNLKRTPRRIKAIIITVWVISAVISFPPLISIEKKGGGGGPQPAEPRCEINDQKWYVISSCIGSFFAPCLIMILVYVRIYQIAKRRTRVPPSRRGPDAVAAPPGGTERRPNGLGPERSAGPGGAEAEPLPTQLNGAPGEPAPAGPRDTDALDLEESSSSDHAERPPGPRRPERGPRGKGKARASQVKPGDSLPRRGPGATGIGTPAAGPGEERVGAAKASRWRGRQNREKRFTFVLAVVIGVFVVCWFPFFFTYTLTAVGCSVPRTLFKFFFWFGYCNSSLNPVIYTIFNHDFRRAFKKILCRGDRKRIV

PDE3A (h) = PDE3A (h) (Homo sapiens, UniProt Q14432); experiment: biochemical; settings: 1.0E-06 M
Chain of PDE3A (h) (Q14432 whole entry): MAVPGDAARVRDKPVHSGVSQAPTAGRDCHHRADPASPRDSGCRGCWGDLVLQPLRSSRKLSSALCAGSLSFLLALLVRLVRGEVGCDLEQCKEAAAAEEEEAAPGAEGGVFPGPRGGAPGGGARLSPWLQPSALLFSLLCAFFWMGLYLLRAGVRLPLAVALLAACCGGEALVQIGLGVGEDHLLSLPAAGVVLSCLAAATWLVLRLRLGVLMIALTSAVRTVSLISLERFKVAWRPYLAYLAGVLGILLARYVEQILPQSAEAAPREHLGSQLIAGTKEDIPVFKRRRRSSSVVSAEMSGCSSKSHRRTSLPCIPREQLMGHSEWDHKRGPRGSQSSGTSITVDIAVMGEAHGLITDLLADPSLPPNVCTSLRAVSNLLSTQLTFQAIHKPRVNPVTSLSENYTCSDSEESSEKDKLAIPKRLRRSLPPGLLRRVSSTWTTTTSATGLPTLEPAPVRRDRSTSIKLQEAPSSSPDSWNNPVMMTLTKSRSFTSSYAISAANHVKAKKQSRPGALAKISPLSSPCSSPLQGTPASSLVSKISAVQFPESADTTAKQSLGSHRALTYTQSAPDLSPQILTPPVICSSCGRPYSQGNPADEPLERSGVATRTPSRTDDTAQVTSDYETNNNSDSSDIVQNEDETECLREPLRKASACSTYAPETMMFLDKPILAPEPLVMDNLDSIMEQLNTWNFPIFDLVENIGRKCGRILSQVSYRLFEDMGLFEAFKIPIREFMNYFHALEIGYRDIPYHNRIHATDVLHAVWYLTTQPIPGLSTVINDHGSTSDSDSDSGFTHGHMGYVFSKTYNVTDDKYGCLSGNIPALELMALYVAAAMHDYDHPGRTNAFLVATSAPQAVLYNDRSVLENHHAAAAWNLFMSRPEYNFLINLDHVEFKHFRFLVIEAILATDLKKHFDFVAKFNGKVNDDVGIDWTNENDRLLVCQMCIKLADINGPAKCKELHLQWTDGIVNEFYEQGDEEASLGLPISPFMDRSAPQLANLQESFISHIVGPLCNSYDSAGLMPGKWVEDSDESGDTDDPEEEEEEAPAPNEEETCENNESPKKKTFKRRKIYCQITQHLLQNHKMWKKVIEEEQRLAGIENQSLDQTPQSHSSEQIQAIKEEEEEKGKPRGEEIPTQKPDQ

MC4 (h) = target: T5, MC4 (h) (Homo sapiens, UniProt P32245); format: binding; settings: 1.0E-06 M
T5 construct: host or cells: CHO cells
T5 sequence (P32245 whole entry): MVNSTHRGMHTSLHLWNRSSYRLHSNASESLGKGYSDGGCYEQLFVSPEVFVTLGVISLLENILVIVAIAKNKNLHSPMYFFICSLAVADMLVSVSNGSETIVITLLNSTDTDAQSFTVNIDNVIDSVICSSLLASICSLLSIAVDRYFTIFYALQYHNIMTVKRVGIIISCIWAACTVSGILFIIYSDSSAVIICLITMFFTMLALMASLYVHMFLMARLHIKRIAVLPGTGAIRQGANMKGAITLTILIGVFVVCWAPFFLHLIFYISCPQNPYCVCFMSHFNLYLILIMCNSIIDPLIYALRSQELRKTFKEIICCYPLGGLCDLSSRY

ATPase (Na+/K+) = experiment: enzyme assay; format: biochemical, porcine; settings: 1.0E-06 M

`Cn1c(=O)n(CCCO)c(=O)c2c1nc(Oc1cccc(Cl)c1)n2Cc1ccc(Cl)cc1` [HC-070] was tested, and the immobility time (CD-1 mice; 0.3, 1 or 3 mg/kg PO, 60 min prior, CD-1 mice) was “reduced the immobility time; also recorded: significantly decreased”, the IC50 (CD-1 mice; Mus musculus, read-out: IC50 of immobility versus average plasma exposure (PK-PD)) was 58 nM and the “calculated free brain concentration corresponding to PK-PD IC50” value (CD-1 mice; male, CD-1 and C57BL/6, mouse, in vivo) was 0.16 nM. The “CS fear memory in CSD mice” value (C57BL/6 (CSD) mice) was “tended to reduce”, the “context fear memory in CSD mice” value (C57BL/6 (CSD) mice) was “significantly reduced” and the “freezing in inter-trial intervals between CS presentations, CSD mice” value (C57BL/6 (CSD) mice) was “ameliorated to the level of control mice; also recorded: reduced fear memory in CSD mice”.
`Cn1c(=O)n(CCCO)c(=O)c2c1nc(Oc1cccc(OC(F)(F)F)c1)n2Cc1ccc(Cl)cc1` [HC-608] was tested, and the inhibition at 1 µM ([1]; read-out: % Inhibition 1st) was -0.9%, the inhibition at 1 µM ([1]; read-out: % Inhibition 2nd) was 0.2% and the inhibition at 1 µM ([1]; read-out: % Inhibition Mean) was -0.4%. The inhibition at 1 µM (5-HT6 (h); read-out: % Inhibition 1st) was -5.1%, the inhibition at 1 µM (5-HT6 (h); read-out: % Inhibition 2nd) was 7.3% and the inhibition at 1 µM (5-HT6 (h); read-out: % Inhibition Mean) was 1.1%. The inhibition at 1 µM ([2]; read-out: % Inhibition 1st) was 1.7%, the inhibition at 1 µM ([2]; read-out: % Inhibition 2nd) was 3.1% and the inhibition at 1 µM ([2]; read-out: % Inhibition Mean) was 2.4%. The IC50 (hTRPC4) was ~0.17 nM, the inhibition at 1 µM (sst4 (h); read-out: % Inhibition 1st) was -27% and the inhibition at 1 µM (sst4 (h); read-out: % Inhibition 2nd) was 9.5%. For the same compound, the inhibition at 1 µM (sst4 (h); read-out: % Inhibition Mean) was -8.8%, the inhibition at 1 µM (D2S (h); read-out: % Inhibition 1st) was 19.2% and the inhibition at 1 µM (D2S (h); read-out: % Inhibition 2nd) was 9.4%. For the same compound, the inhibition at 1 µM (D2S (h); read-out: % Inhibition Mean) was 14.3%, the “% Inhibition 1st” value (NMDA) was 19% and the “% Inhibition 2nd” value (NMDA) was 3.2%. The “% Inhibition Mean” value (NMDA) was 11.1%, the inhibition at 1 µM (5-HT2C (h); read-out: % Inhibition 1st) was 12.1% and the inhibition at 1 µM (5-HT2C (h); read-out: % Inhibition 2nd) was 12.6%. It also gave an inhibition at 1 µM (5-HT2C (h); read-out: % Inhibition Mean) of 12.3%, an inhibition at 1 µM (M1 (h); read-out: % Inhibition 1st) of -1.6% and an inhibition at 1 µM (M1 (h); read-out: % Inhibition 2nd) of 5.5%. For the same compound, the inhibition at 1 µM (M1 (h); read-out: % Inhibition Mean) was 2%, the inhibition at 1 µM (α2A (h); read-out: % Inhibition 1st) was -14.9% and the inhibition at 1 µM (α2A (h); read-out: % Inhibition 2nd) was -3.7%. It also gave an inhibition at 1 µM (α2A (h); read-out: % Inhibition Mean) of -9.3%, an inhibition at 1 µM (PDE3A (h); read-out: % Inhibition 1st) of 3.1% and an inhibition at 1 µM (PDE3A (h); read-out: % Inhibition 2nd) of 0.2%. The inhibition at 1 µM (PDE3A (h); read-out: % Inhibition Mean) was 1.7%, the inhibition at 1 µM (MC4 (h); read-out: % Inhibition 1st) was 2.9% and the inhibition at 1 µM (MC4 (h); read-out: % Inhibition 2nd) was -4.8%. The inhibition at 1 µM (MC4 (h); read-out: % Inhibition Mean) was -1%, the “% Inhibition 1st” value (ATPase (Na+/K+)) was 3.0% and the “% Inhibition 2nd” value (ATPase (Na+/K+)) was -1.5%. For the same compound, the “% Inhibition Mean” value (ATPase (Na+/K+)) was 0.8%.
